Results as given in paper PMC2966039 (Journal of Medicinal Chemistry, 2009).

Experiments:
[1] = molecular target: T1, TbPTR1 (Trypanosoma brucei brucei, UniProt O76290); assay: TbPTR1 activity assay; type: biochemical; conditions: for Hill slope: averaged over at least two independent measurements; for ligand efficiency: from Ki^app
T1 sequence (O76290 1-268): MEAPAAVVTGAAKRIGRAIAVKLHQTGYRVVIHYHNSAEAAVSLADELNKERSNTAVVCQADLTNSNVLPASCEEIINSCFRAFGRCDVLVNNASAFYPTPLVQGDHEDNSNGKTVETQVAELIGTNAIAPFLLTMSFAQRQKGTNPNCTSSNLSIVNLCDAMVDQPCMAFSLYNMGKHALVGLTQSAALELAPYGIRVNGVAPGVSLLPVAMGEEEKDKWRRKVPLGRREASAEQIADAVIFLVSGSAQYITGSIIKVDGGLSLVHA

[2] = molecular target: LmPTR1; conditions: cited from earlier work

Row | SMILES | Hill slope [1] | ligand efficiency [1] [kcal mol^−1/heavy atom] | other results
1 | Nc1nc2cccc(Cl)c2n1Cc1ccc(Cl)c(Cl)c1 [Compound 10, 7-Chloro-1-(3,4-dichlorobenzyl)-1H-benzo[d]imidazol-2-amine] | 1.0 | – | –
2 | Nc1nc2ccc(C(=O)N3CCCCC3)cc2s1 [Compound 3] | 0.6 | 0.29 | –
3 | Cc1cnc2nc(N)nc(N)c2n1 [6-methylpteridine-2,4-diamine] | – | – | inhibition constants [2]: low micromolar range
4 | CCCOc1cccc2nc(N)n(Cc3ccc(Cl)c(Cl)c3)c12 [Compound 11, 7-(n-Propyloxy)-1-(3,4-dichlorobenzyl)-1H-benzo[d]imidazol-2-amine] | – | – | increase in potency ([1]; compared to the 7-chloro derivative 10): 10 fold
5 | Nc1nc2cccc(-c3ccccc3)c2n1Cc1ccc(Cl)c(Cl)c1 [Compound 12, 7-Phenyl-1-(3,4-dichlorobenzyl)-1H-benzo[d]imidazol-2-amine] | 0.7 | – | –
6 | COC(=O)c1ccc2nc(N)sc2c1 [Compound 2] | 0.6 | 0.46 | –

The next lines start with results.

Row | Hill slope [1] | ligand efficiency [1] [kcal mol^−1/heavy atom] | SMILES | other results
7 | 0.7 | – | Nc1nc2ccccc2n1Cc1ccc(Cl)c(Cl)c1 [Compound 9, 1-(3,4-dichloro-benzyl)-2-amino-benzimidazole] | increase in affinity ([1]; compared to the virtual screening hit (4)): more than 20 fold
8 | 1.1 | – | Cc1cccc(-c2ccc3nc(N)[nH]c3c2)c1 [Compound 6] | –
9 | 0.9 | 0.62 | Nc1nc2ccc(Cl)cc2[nH]1 [Compound 4, 2-Amino-6-chloro-benzimidazole] | –
10 | 0.9 | – | Nc1nc2ccccc2[nH]1 [Compound 5, 2-amino-benzimidazole] | drop in affinity ([1]; compared to 4): more than 20 fold
